# Data from publication PMC5936891, “A focused library synthesis and cytotoxicity of quinones derived from the natural product bolinaquinone” (Royal Society Open Science, 2018).
# How the values were obtained:
# H460 (lung carcinoma) = experiment: MTT in vitro growth inhibition assay, H460; assay type: cell-based; settings: Homo sapiens; for inhibition at 25 µM: NCI-H460, 25 µM of drug, 72 h, read-out: Percentage of Cell Growth Inhibition H460; for GI50: NCI-H460, 72 h drug exposure
# Text: (§1) With the desired bolinaquinone analogues 12–43 in hand, we examined their cytotoxicity against a panel of 11 tumour cell lines: HT29 (colon carcinoma), U87 and SJ-G2 (glioblastoma), MCF-7 (breast carcinoma), A2780 (ovarian carcinoma), H460 (lung carcinoma), A431 (skin carcinoma), Du145 (prostate carcinoma), BE2-C (neuroblastoma), MIA (pancreatic carcinoma), SMA (spontaneous murine astrocytoma) and a normal breast cell line (MCF10A). The inclusion of the MCF-10A cell line allowed a determination of a crude measure of relative toxicity while noting that the ultimate arbiter of toxicity requires in vivo evaluation. All analogues were initially screened at a 25 µM drug concentration.
# (§2) Stock solutions were prepared as follows and stored at −20°C: drugs were stored as 40 mM solutions in DMSO. All cell lines were cultured in a humidified atmosphere 5% CO2 at 37°C. The cancer cell lines were maintained in Dulbecco's modified Eagle's medium (DMEM) (Trace Biosciences, Australia) supplemented with 10% fetal bovine serum, 10 mM sodium bicarbonate, penicillin (100 IU ml^−1), streptomycin (100 µg ml^−1) and glutamine (4 mM). The non-cancer MCF10A cell line was cultured in DMEM:F12 (1 : 1) cell culture media, 5% heat-inactivated horse serum, supplemented with penicillin (50 IU ml^−1), streptomycin (50 µg ml^−1), 20 mM Hepes, L-glutamine (2 mM), epidermal growth factor (20 ng ml^−1), hydrocortisone (500 ng ml^−1), cholera toxin (100 ng ml^−1) and insulin (10 ug ml^−1).
# (§3) Cells in logarithmic growth were transferred to 96-well plates. Cytotoxicity was determined by plating cells in duplicate in 100 µl medium at a density of 2500–4000 cells per well. On day 0 (24 h after plating), when the cells were in logarithmic growth, 100 μl of medium with or without the test agent was added to each well. After 72 h, drug exposure growth inhibitory effects were evaluated using the MTT (3-[4,5-dimethylthiazol-2-yl]-2,5-diphenyl-tetrazolium bromide) assay and the absorbance read at 540 nm. Percentage growth inhibition was determined at a fixed drug concentration of 25 µM. A value of 100% is indicative of complete cell growth inhibition. Those analogues showing appreciable percentage growth inhibition underwent further dose–response analysis allowing for the calculation of a GI50 value. This value is the drug concentration at which cell growth is 50% inhibited based on the difference between the optical density values on day 0 and those at the end of drug exposure.
# [1] = test system: panel of 11 cancer cell lines and one normal cell line; experiment: Cytotoxicity across the whole cell line panel (MTT); assay type: cell-based; settings: 25 µM single dose
# Text: as §1, §2, §3
# [2] = test system: A2780 (ovarian carcinoma); experiment: MTT in vitro growth inhibition assay, A2780; assay type: cell-based; settings: Homo sapiens; for inhibition at 25 µM: 25 µM of drug, 72 h, read-out: Percentage of Cell Growth Inhibition A2780; for GI50: 72 h drug exposure
# Text: as §1, §2, §3
# [3] = test system: Du145 (prostate carcinoma); experiment: MTT in vitro growth inhibition assay, Du145; assay type: cell-based; settings: Homo sapiens; for inhibition at 25 µM: DU-145, 25 µM of drug, 72 h, read-out: Percentage of Cell Growth Inhibition Du145; for GI50: DU-145, 72 h, 72 h drug exposure
# Text: as §1, §2, §3
# [4] = test system: MCF10A (normal breast cell line); experiment: MTT in vitro growth inhibition assay, MCF10A; assay type: cell-based; settings: Homo sapiens, MCF-10A; for inhibition at 25 µM: 25 µM of drug, 72 h, read-out: Percentage of Cell Growth Inhibition MCF10A; for GI50: normal breast cell line, 72 h drug exposure
# Text: as §1, §2, §3
# [5] = test system: MIA (pancreatic carcinoma); experiment: MTT in vitro growth inhibition assay, MIA; assay type: cell-based; settings: for inhibition at 25 µM: 25 µM of drug, 72 h, read-out: Percentage of Cell Growth Inhibition MIA; for GI50: 72 h drug exposure
# Text: as §1, §2, §3
# [6] = test system: SMA (spontaneous murine astrocytoma); experiment: MTT in vitro growth inhibition assay, SMA; assay type: cell-based; settings: Mus musculus; for inhibition at 25 µM: 25 µM of drug, 72 h, read-out: Percentage of Cell Growth Inhibition SMA; for GI50: 72 h drug exposure
# Text: as §1, §2, §3
# A431 (skin carcinoma) = experiment: MTT in vitro growth inhibition assay, A431; assay type: cell-based; settings: Homo sapiens; for inhibition at 25 µM: A-431, 25 µM of drug, 72 h, read-out: Percentage of Cell Growth Inhibition A431; for GI50: A-431, 72 h, 72 h drug exposure
# Text: as §1, §2, §3
# MCF-7 (breast carcinoma) = experiment: MTT in vitro growth inhibition assay, MCF-7; assay type: cell-based; settings: Homo sapiens; for inhibition at 25 µM: MCF7, 25 µM of drug, 72 h, read-out: Percentage of Cell Growth Inhibition MCF-7; for GI50: MCF7, 72 h drug exposure
# Text: as §1, §2, §3
# HT29 (colon carcinoma) = experiment: MTT in vitro growth inhibition assay, HT29; assay type: cell-based; settings: Homo sapiens; for inhibition at 25 µM: HT-29, 25 µM of drug, 72 h, read-out: Percentage of Cell Growth Inhibition HT29; for GI50: HT-29, 72 h drug exposure
# Text: as §1, §2, §3
# SJ-G2 (glioblastoma) = experiment: MTT in vitro growth inhibition assay, SJ-G2; assay type: cell-based; settings: for inhibition at 25 µM: 25 µM of drug, 72 h, read-out: Percentage of Cell Growth Inhibition SJ-G2; for GI50: 72 h drug exposure
# Text: as §1, §2, §3
# BE2-C (neuroblastoma) = experiment: MTT in vitro growth inhibition assay, BE2-C; assay type: cell-based; settings: Homo sapiens, BE(2)-C, 72 h; for inhibition at 25 µM: 25 µM of drug, read-out: Percentage of Cell Growth Inhibition BE2-C; for GI50: 72 h drug exposure
# Text: as §1, §2, §3
# U87 (glioblastoma) = experiment: MTT in vitro growth inhibition assay, U87; assay type: cell-based; settings: for inhibition at 25 µM: 25 µM of drug, 72 h, read-out: Percentage of Cell Growth Inhibition U87; for GI50: 72 h drug exposure
# Text: as §1, §2, §3
Compound,melting point [°C],inhibition at 25 µM (H460 (lung carcinoma)) [%],activity at the initial screening concentration (to proceed to GI50 determination) [1],inhibition at 25 µM [2] [%],inhibition at 25 µM [3] [%],inhibition at 25 µM [4] [%],inhibition at 25 µM [5] [%],inhibition at 25 µM [6] [%],inhibition at 25 µM (A431 (skin carcinoma)) [%],inhibition at 25 µM (MCF-7 (breast carcinoma)) [%],inhibition at 25 µM (HT29 (colon carcinoma)) [%],inhibition at 25 µM (SJ-G2 (glioblastoma)) [%],inhibition at 25 µM (BE2-C (neuroblastoma)) [%],inhibition at 25 µM (U87 (glioblastoma)) [%],further results
"COC1=CC(=O)C(OC)=C(c2cccc(C)c2)C1=O [compound 14, 2,5-Dimethoxy-3-m-tolylcyclohexa-2,5-diene-1,4-dione]",74 to 77,19 ± 2,not sufficiently active,59 ± 13,28 ± 8,16 ± 5,24 ± 7,36 ± 7,26 ± 5,22 ± 11,12 ± 3,38 ± 18,80 ± 10,21 ± 7,
"CCCCc1ccc(C2=C(OC)C(=O)C=C(OC)C2=O)cc1 [compound 15, 3-(4-Butylphenyl)-2,5-dimethoxycyclohexa-2,5-diene-1,4-dione]",,< 10,not sufficiently active,39 ± 14,< 10,< 10,< 10,25 ± 10,< 10,19 ± 7,< 10,12 ± 6,41 ± 18,10 ± 7,
"COC1=CC(=O)C(OC)=C(c2ccccc2OC)C1=O [compound 18, 3-(2-Methoxyphenyl)-2,5-dimethoxycyclohexa-2,5-diene-1,4-diene]",162 to 164,22 ± 2,not sufficiently active,33 ± 6,14 ± 8,15 ± 5,19 ± 5,34 ± 8,28 ± 4,22 ± 9,13 ± 6,17 ± 8,75 ± 9,15 ± 2,
"COC1=CC(=O)C(OC)=C(c2cc(OC)ccc2OC)C1=O [compound 21, 2,5-Dimethoxy-3-(2,5-dimethoxyphenyl)cyclohexa-2,5-diene-1,4-dione]",,17 ± 7,not sufficiently active,26 ± 9,17 ± 5,< 10,15 ± 2,26 ± 4,12 ± 3,13 ± 6,16 ± 4,16 ± 7,49 ± 11,14 ± 2,
"COC1=C(c2ccc3ccccc3c2)C(=O)C(OC)=C(c2ccccc2-c2ccccc2)C1=O [compound 36, 2,5-Dimethoxy-3-(biaryl-2-yl)-6-(naphthalene-3-yl)cyclohexa-2,5-diene-1,4-dione]",113 to 115,65 ± 3,,87 ± 2,51 ± 3,77 ± 4,78 ± 2,84 ± 7,78 ± 2,> 100,> 100,78 ± 5,> 100,57 ± 2,GI50 (H460 (lung carcinoma)): 18 ± 2.3 µM; GI50 [2]: 9 ± 0.6 µM; GI50 [3]: 21 ± 0.2 µM; GI50 [4]: 15 ± 2.2 µM; GI50 [5]: 12 ± 0.7 µM; GI50 [6]: 10 ± 0.3 µM; GI50 (A431 (skin carcinoma)): 15 ± 1.5 µM; GI50 (MCF-7 (breast carcinoma)): 5.1 ± 0.5 µM; GI50 (HT29 (colon carcinoma)): 11 ± 0.9 µM; GI50 (SJ-G2 (glioblastoma)): 13 ± 1.5 µM; GI50 (BE2-C (neuroblastoma)): 8.7 ± 0.7 µM; GI50 (U87 (glioblastoma)): 20 ± 0.9 µM
"COC1=C(c2cccc(-c3ccccc3)c2)C(=O)C(OC)=C(c2ccc3ccccc3c2)C1=O [compound 37, 2,5-Dimethoxy-3-(biaryl-3-yl)-6-(naphthalene-3-yl)cyclohexa-2,5-diene-1,4-dione]",119 to 121,95 ± 1,,76 ± 3,> 100,> 100,91 ± 2,85 ± 3,> 100,88 ± 4,> 100,> 100,> 100,74 ± 3,GI50 (H460 (lung carcinoma)): 11 ± 0.3 µM; GI50 [2]: 11 ± 0.9 µM; GI50 [3]: 9.8 ± 0.7 µM; GI50 [4]: 11 ± 1.3 µM; GI50 [5]: 8.3 ± 1 µM; GI50 [6]: 13 ± 1 µM; GI50 (A431 (skin carcinoma)): 6 ± 0.9 µM; GI50 (MCF-7 (breast carcinoma)): 10 ± 2.6 µM; GI50 (HT29 (colon carcinoma)): 5.4 ± 0.4 µM; GI50 (SJ-G2 (glioblastoma)): 9.3 ± 1.2 µM; GI50 (BE2-C (neuroblastoma)): 6.7 ± 0.3 µM; GI50 (U87 (glioblastoma)): 14 ± 1 µM
"CCCNC1=CC(=O)C(NCCC)=C(c2ccc(C)cc2)C1=O [compound 38, 2,5-Bis(propylamino)3-p-tolylcyclohexa-2,5-diene-1,4-dione]",166 to 168,51 ± 2,,63 ± 4,56 ± 2,69 ± 3,67 ± 3,73 ± 1,81 ± 0.3,57 ± 3,59 ± 4,50 ± 2,28 ± 12,67 ± 5,
"CCCNC1=CC(=O)C(NCCC)=C(c2cccc3ccccc23)C1=O [compound 39, 3-(Naphthalene-1-yl)-2,5-bis-(propylamino)cyclohexa-2,5-diene-1,4-dione]",134 to 137,59 ± 3,,78 ± 2,75 ± 1,78 ± 1,69 ± 2,54 ± 11,76 ± 3,69 ± 1,76 ± 2,59 ± 1,73 ± 3,75 ± 1,
"CCCNC1=C(c2ccccc2)C(=O)C(NCCC)=C(c2cccc3ccccc23)C1=O [compound 42, 2-(Naphthalene-1-yl)-5-phenyl-3,6-bis-(propylamino)cyclohexa-2,5-diene-1,4-dione]",226 to 228,63 ± 3,,79 ± 1,70 ± 3,76 ± 1,76 ± 2,56 ± 9,81 ± 1,77 ± 4,71 ± 3,52 ± 1,56 ± 4,69 ± 4,
